Results as given in US12691110B2 (Massachusetts Eye and Ear Infirmary, priority 2022, dated 2026).

Key:
C-PVR cells = assay: CyQuant cell proliferation assay in human patient derived primary cultures of PVR; format: cell-based
Procedure: Twelve candidate drugs were tested at 2 concentrations at 72 hours for their effects on proliferation and cytotoxicity in C-PVR cells. […] Each anti-proliferative drug was tested at 2 concentrations determined by using the IC50 of each drug. The data was expressed as percent cell inhibition.
The cells were washed and the CyQuant Direct nucleic acid stain was added and incubated at 37 degrees in the incubator. Fluorescence read outs were measured at wavelengths as instructed in the protocol.

human PVR explants = assay: Ex vivo human PVR explant outgrowth and sprouting model; format: cell-based; conditions: for total branch length of outgrowths: vehicle 167 mm; for sprouting distance from the explant (in words): 3-10 days
[1] = Homo sapiens, 72 hours, C-PVR cells
[2] = Homo sapiens, 5 μM, 72 hours, C-PVR cells

## COc1cccc2c1C(=O)c1c(O)c3c(c(O)c1C2=O)C[C@@](O)(C(C)=O)C[C@@H]3O[C@H]1C[C@H](N)[C@H](O)[C@H](C)O1 [Daunorubicin]
C-PVR cells; 15 nM, 72 hours, C-PVR cells
  reduction in proliferation: 50%
C-PVR cells; 30 nM, 72 hours, C-PVR cells
  reduction in proliferation: 53%

## O=C1CN=C(c2ccc[nH]2)c2cc(Cl)ccc2N1 [RUNX1 inhibitor, Ro5-3335]
C-PVR cells; 150 μM alone, 48 and 72 hours
  inhibition of growth of C-PVR cells (in words): efficacious at inhibiting growth of C-PVR cells

## CC[C@@]1(O)C(=O)OCc2c1cc1n(c2=O)Cc2cc3c(CN(C)C)c(O)ccc3nc2-1 [Topotecan, topotecan]
C-PVR cells; 40 nM, 72 hours, C-PVR cells
  decrease in proliferation: 54%
C-PVR cells; 80 nM, 72 hours, C-PVR cells
  decrease in proliferation: 53%
C-PVR cells; concentrations of 40 nM and 80 nM, FIG. 1B
  inhibition of proliferation of C-PVR cells (in words): effectively inhibited the proliferation of C-PVR cells
Human PVR explants; 40 nM (so in the source)
  total branch length of outgrowths: 34 mm
Human PVR explants; 80 nM alone
  sprouting distance from the explant (in words): statistically significant reduction in sprouting distance

## Cn1c(CCCC(=O)O)nc2cc(N(CCCl)CCCl)ccc21 [bendamustine]
C-PVR cells; [1]
  inhibition at 1 µM: 25%
C-PVR cells; [2]
  inhibition at 5 µM: 20%

## COC(=O)N[C@H](C(=O)N1CCC[C@H]1c1ncc(-c2ccc(-c3ccc(-c4cnc([C@@H]5CCCN5C(=O)[C@@H](NC(=O)OC)C(C)C)[nH]4)cc3)cc2)[nH]1)C(C)C [daclatsvir]
C-PVR cells; 5 μM, 72 hours, C-PVR cells
  inhibition of cell proliferation: 16%

## Nc1cccc2c1CN(C1CCC(=O)NC1=O)C2=O (stereo not shown) [lenalidomide]
C-PVR cells; concentration not given, 72 hours, C-PVR cells
  inhibition of proliferation: 24%

## CN1CCN(c2c(F)cc3c(=O)c(C(=O)O)cn4c3c2OCN4C)CC1 [marbofloxacin]
C-PVR cells; [2]
  inhibition at 5 µM: 30%

## N[C@@H](Cc1ccc(N(CCCl)CCCl)cc1)C(=O)O [melphalan, 4-[bis(2-chloroethyl)amino]-L-phenylalanine]
C-PVR cells; 60 μM, 72 hours, C-PVR cells
  reduction of cell proliferation: 83%
C-PVR cells; Homo sapiens, 30 μM, 72 hours, C-PVR cells
  inhibition at 30 µM: 74%
C-PVR cells; concentrations of 30 nM and 60 nM (so in the source), FIG. 1A
  inhibition of proliferation of C-PVR cells (in words): effectively inhibited the proliferation of C-PVR cells
Human PVR explants; 30 μM alone
  sprouting distance from the explant (in words): statistically significant reduction in sprouting distance
Human PVR explants; 30 μM
  total branch length of outgrowths: 27.5 mm

## Oc1ccc(C=Cc2cc(O)cc(O)c2)cc1 [resveratrol]
C-PVR cells; [2]
  inhibition at 5 µM: 28%

## CC(C)[C@H](O)C(=O)N[C@@H](C)C(=O)N[C@@H]1C(=O)N(C)CCc2ccccc21 [semagacestat]
C-PVR cells; [1]
  inhibition at 1 µM: 28%
C-PVR cells; [2]
  inhibition at 5 µM: 30%

## Cc1cn([C@H]2C=C[C@@H](CO)O2)c(=O)[nH]c1=O [stavudine]
C-PVR cells; [2]
  inhibition at 5 µM: 19%
